Source: patent publication US9040545B2, “Heterocyclyl pyrazolopyrimidine analogues as selective JAK inhibitors” (Cellzome Limited, priority 2010, dated 2015)

Molecular target: T1, Aurora B (Homo sapiens, UniProt Q96GD4)
T1 construct: cell lysates from Jurkat cells (ATCC TIB-152) used; endogenous in cells; host or cells: Jurkat cells (ATCC TIB-152), treated with pervanadate
Assay: Kinobeads assay, Aurora B
Format: binding
Conditions: for IC50: lysate of pervanadate-treated Jurkat cells, read-out: Inhibition values (IC50) Aur B

T1 sequence (Q96GD4 whole entry): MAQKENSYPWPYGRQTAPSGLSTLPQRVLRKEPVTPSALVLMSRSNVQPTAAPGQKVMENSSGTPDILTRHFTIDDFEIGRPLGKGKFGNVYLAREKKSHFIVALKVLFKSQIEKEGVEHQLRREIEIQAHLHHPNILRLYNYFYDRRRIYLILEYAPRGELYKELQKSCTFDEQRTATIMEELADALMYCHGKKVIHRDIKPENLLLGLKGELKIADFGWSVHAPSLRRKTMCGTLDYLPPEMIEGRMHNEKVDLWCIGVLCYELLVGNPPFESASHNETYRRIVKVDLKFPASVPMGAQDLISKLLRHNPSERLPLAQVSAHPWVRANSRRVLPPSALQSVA

Compound | JAK3/AurB Fold Selectivity | IC50 [nM]
c1cc(Cn2ncc3cnc(Nc4cnn(CC5CCCNC5)c4)nc32)cc(N2CCOCC2)c1 (stereo not drawn) [Example 48, 1-(3-Morpholinobenzyl)-N-(1-(piperidin-3-ylmethyl)-1H-pyrazol-4-yl)-1H-pyrazolo[3,4-d]pyrimidin-6-amine] | >50 Fold | 1000 to 10000
Cn1cc(Nc2ncc3cnn(Cc4cc(F)cc(N5CCOCC5)c4)c3n2)cn1 [Example 49, 1-(3-Fluoro-5-morpholinobenzyl)-N-(1-methyl-1H-pyrazol-4-yl)-1H-pyrazolo[3,4-d]pyrimidin-6-amine] | >50 Fold | 1000 to 10000
Cn1cc(Nc2ncc3cnn(Cc4cc(F)cc(N5CCOCC5=O)c4)c3n2)cn1 [Example 52, 4-(3-Fluoro-5-((6-((1-methyl-1H-pyrazol-4-yl)amino)-1H-pyrazolo[3,4-d]pyrimidin-1-yl)methyl)phenyl)morpholin-3-one] | >50 Fold | 1000 to 10000
Cn1cc(Nc2ncc3cnn(Cc4cccc(N5CCNCC5=O)c4F)c3n2)cn1 [Example 54, 1-(2-Fluoro-3-((6-((1-methyl-1H-pyrazol-4-yl)amino)-1H-pyrazolo[3,4-d]pyrimidin-1-yl)methyl)phenyl)piperazin-2-one] | >50 Fold | 1000 to 10000
OCCn1cc(Nc2ncc3cnn(Cc4cc(N5CCOCC5)cc(F)c4F)c3n2)cn1 [Example 56, 2-(4-((1-(2,3-Difluoro-5-morpholinobenzyl)-1H-pyrazolo[3,4-d]pyrimidin-6-yl)amino)-1H-pyrazol-1-yl)ethanol] | >50 Fold | 1000 to 10000
O=C1COCCN1c1cc(F)c(F)c(Cn2ncc3cnc(Nc4cnn(CCO)c4)nc32)c1 [Example 59, 4-(3,4-Difluoro-5-((6-((1-(2-hydroxyethyl)-1H-pyrazol-4-yl)amino)-1H-pyrazolo[3,4-d]pyrimidin-1-yl)methyl)phenyl)morpholin-3-one] | 10-50 Fold | 100 to 1000
c1cc(Cn2ncc3cnc(Nc4cnn(CC5CCNC5)c4)nc32)cc(N2CCOCC2)c1 (stereo not drawn) [Example 60, 1-(3-Morpholinobenzyl)-N-(1-(pyrrolidin-3-ylmethyl)-1H-pyrazol-4-yl)-1H-pyrazolo[3,4-d]pyrimidin-6-amine] | >50 Fold | 1000 to 10000
Cn1cc(Nc2ncc3cnn(Cc4c(F)c(F)cc(N5CCOCC5=O)c4F)c3n2)cn1 [Example 61, 4-(2,4,5-Trifluoro-3-((6-((1-methyl-1H-pyrazol-4-yl)amino)-1H-pyrazolo[3,4-d]pyrimidin-1-yl)methyl)phenyl)morpholin-3-one] | 10-50 Fold | 100 to 1000
O=C1COCCN1c1cc(F)c(F)c(Cn2ncc3cnc(Nc4cnn(CCO)c4)nc32)c1F [Example 62, 4-(2,4,5-Trifluoro-3-((6-((1-(2-hydroxyethyl)-1H-pyrazol-4-yl)amino)-1H-pyrazolo[3,4-d]pyrimidin-1-yl)methyl)phenyl)morpholin-3-one] | 10-50 Fold | 100 to 1000

Results, then the compound that gave them:

JAK3/AurB Fold Selectivity | IC50 [nM] | Compound
10-50 Fold | 100 to 1000 | CN(C)CCCn1cc(Nc2ncc3cnn(Cc4c(F)c(F)cc(N5CCOCC5)c4F)c3n2)cn1 [Example 42, N-(1-(3-(Dimethylamino)propyl)-1H-pyrazol-4-yl)-1-(2,3,6-trifluoro-5-morpholinobenzyl)-1H-pyrazolo[3,4-d]pyrimidin-6-amine]
>50 Fold | 100 to 1000 | CN(C)CCCn1cc(Nc2ncc3cnn(Cc4cccc(N5CCOCC5)c4F)c3n2)cn1 [Example 43, N-(1-(3-(Dimethylamino)propyl)-1H-pyrazol-4-yl)-1-(2-fluoro-3-morpholinobenzyl)-1H-pyrazolo[3,4-d]pyrimidin-6-amine]
10-50 Fold | 100 to 1000 | OCCn1cc(Nc2ncc3cnn(Cc4cc(N5CCOCC5)ccc4F)c3n2)cn1 [Example 44, 2-(4-((1-(2-Fluoro-5-morpholinobenzyl)-1H-pyrazolo[3,4-d]pyrimidin-6-yl)amino)-1H-pyrazol-1-yl)ethanol]
10-50 Fold | 100 to 1000 | OCCn1cc(Nc2ncc3cnn(Cc4c(F)c(F)cc(N5CCOCC5)c4F)c3n2)cn1 [Example 45, 2-(4-((1-(2,3,6-Trifluoro-5-morpholinobenzyl)-1H-pyrazolo[3,4-d]pyrimidin-6-yl)amino)-1H-pyrazol-1-yl)ethanol]
10-50 Fold | 100 to 1000 | O=C1COCCN1c1cccc(Cn2ncc3cnc(Nc4cnn(CCO)c4)nc32)c1F [Example 46, 4-(2-Fluoro-3-((6-((1-(2-hydroxyethyl)-1H-pyrazol-4-yl)amino)-1H-pyrazolo[3,4-d]pyrimidin-1-yl)methyl)phenyl)morpholin-3-one]
10-50 Fold | 100 to 1000 | OCCn1cc(Nc2ncc3cnn(Cc4cccc(N5CCNCC5)c4)c3n2)cn1 [Example 47, 2-(4-((1-(3-(piperazin-1-yl)benzyl)-1H-pyrazolo[3,4-d]pyrimidin-6-yl)amino)-1H-pyrazol-1-yl)ethanol]
>50 Fold | 100 to 1000 | CN(C)CCCn1cc(Nc2ncc3cnn(Cc4cccc(N5CCOCC5=O)c4F)c3n2)cn1 [Example 50, 4-(3-((6-((1-(3-(Dimethylamino)propyl)-1H-pyrazol-4-yl)amino)-1H-pyrazolo[3,4-d]pyrimidin-1-yl)methyl)-2-fluorophenyl)morpholin-3-one]
>50 Fold | 100 to 1000 | OCCn1cc(Nc2ncc3cnn(Cc4cc(F)cc(N5CCOCC5)c4)c3n2)cn1 [Example 51, 2-(4-((1-(3-Fluoro-5-morpholinobenzyl)-1H-pyrazolo[3,4-d]pyrimidin-6-yl)amino)-1H-pyrazol-1-yl)ethanol]
>50 Fold | 100 to 1000 | Cn1cc(Nc2ncc3cnn(Cc4cc(N5CCOCC5=O)cc(F)c4F)c3n2)cn1 [Example 53, 4-(3,4-Difluoro-5-((6-((1-methyl-1H-pyrazol-4-yl)amino)-1H-pyrazolo[3,4-d]pyrimidin-1-yl)methyl)phenyl)morpholin-3-one]
10-50 Fold | 100 to 1000 | O=C1CNCCN1c1cccc(Cn2ncc3cnc(Nc4cnn(CCO)c4)nc32)c1F [Example 55, 1-(2-Fluoro-3-((6-((1-(2-hydroxyethyl)-1H-pyrazol-4-yl)amino)-1H-pyrazolo[3,4-d]pyrimidin-1-yl)methyl)phenyl)piperazin-2-one]
10-50 Fold | 100 to 1000 | O=C1CNCCN1c1cccc(Cn2ncc3cnc(Nc4cnn(CCO)c4)nc32)c1 [Example 57, 1-(3-((6-((1-(2-Hydroxyethyl)-1H-pyrazol-4-yl)amino)-1H-pyrazolo[3,4-d]pyrimidin-1-yl)methyl)phenyl)piperazin-2-one]
10-50 Fold | 100 to 1000 | O=C1COCCN1c1cc(F)cc(Cn2ncc3cnc(Nc4cnn(CCO)c4)nc32)c1 [Example 58, 4-(3-Fluoro-5-((6-((1-(2-hydroxyethyl)-1H-pyrazol-4-yl)amino)-1H-pyrazolo[3,4-d]pyrimidin-1-yl)methyl)phenyl)morpholin-3-one]
